In patent US20260083851A1 (AVILAR THERAPEUTICS, INC., priority 2022, published 2026):
Like-named read-outs stand apart in the source and are kept apart here.

Molecular target: T1, ASGP receptor (biotinylated ASGPR) (Homo sapiens, UniProt P07306)
T1 construct: biotin (biotinylated)
T1 sequence (P07306 1-291): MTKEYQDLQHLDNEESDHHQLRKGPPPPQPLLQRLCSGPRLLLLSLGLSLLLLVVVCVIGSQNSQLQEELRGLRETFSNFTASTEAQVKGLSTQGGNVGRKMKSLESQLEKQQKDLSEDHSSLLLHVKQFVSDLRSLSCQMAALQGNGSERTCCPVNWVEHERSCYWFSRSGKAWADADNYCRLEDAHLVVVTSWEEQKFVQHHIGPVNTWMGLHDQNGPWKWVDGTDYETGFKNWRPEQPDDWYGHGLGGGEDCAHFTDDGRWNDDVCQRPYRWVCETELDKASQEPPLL
Assay type: binding
Conditions: SPR, Biacore 8K, 25° C.

O[C@@H]1[C@H](O)[C@@H](Nc2cncc(C(F)(F)F)n2)CO[C@@H]1CNc1cccnn1 [A37, (2R,3R,4R,5S)-2-((pyridazin-3-ylamino)methyl)-5-((6-(trifluoromethyl)pyrazin-2-yl)amino)tetrahydro-2H-pyran-3,4-diol]
Kd (Table 1A, read-out: ASGPR KD): < 10 µM

O=C(NC[C@H]1OC[C@H](Nc2cncc(C(F)(F)F)n2)[C@@H](O)[C@H]1O)c1ncc(-c2ccccc2)cn1 [A75, N-(((2R,3R,4R,5S)-3,4-dihydroxy-5-((6-(trifluoromethyl)pyrazin-2-yl)amino)tetrahydro-2H-pyran-2-yl)methyl)-5-phenylpyrimidine-2-carboxamide]
Kd (Table 1A, read-out: ASGPR KD): < 10 µM

O=C1c2ccccc2CN1C[C@H]1OC[C@H](Nc2cccc(C(F)(F)F)n2)[C@@H](O)[C@H]1O [A277]
Kd (Table 1C, read-out: ASGPR KD): < 10 µM

O=C(OCc1ccccc1)N1CC(c2ccc(OC[C@H]3OC[C@H](Nc4cncc(C(F)(F)F)n4)[C@@H](O)[C@H]3O)nn2)C1 [A410]
Kd (Table 1D, read-out: ASGPR KD): < 10 µM

O=C(O)COCCOCC(=O)NC[C@H]1OC[C@H](Nc2nccc(C(F)(F)F)n2)[C@@H](O)[C@H]1O [A106, 2-(2-(2-((((2R,3R,4R,5S)-3,4-dihydroxy-5-((4-(trifluoromethyl)pyrimidin-2-yl)amino)tetrahydro-2H-pyran-2-yl)methyl)amino)-2-oxoethoxy)ethoxy)acetic acid]
Kd (Table 1A, read-out: ASGPR KD): < 10 µM

CN1C[C@H](Nc2ccc(C(F)(F)F)cn2)[C@@H](O)[C@@H](O)C1 [A368]
Kd (Table 1D, numeric bound, read-out: ASGPR KD): > 30 µM

O[C@@H]1[C@H](O)[C@@H](Nc2cncc(C(F)(F)F)n2)CO[C@@H]1CNc1ncccn1 [A19, (2R,3R,4R,5S)-2-((pyrimidin-2-ylamino)methyl)-5-((6-(trifluoromethyl)pyrazin-2-yl)amino)tetrahydro-2H-pyran-3,4-diol]
Kd (Table 1A, read-out: ASGPR KD): < 10 µM

O=C(O)C1CCC(C(=O)NC[C@H]2OC[C@H](Nc3cncc(C(F)(F)F)n3)[C@@H](O)[C@H]2O)CC1 (stereo partly drawn) [A32, 4-((((2R,3R,4R,5S)-3,4-dihydroxy-5-((6-(trifluoromethyl)pyrazin-2-yl)amino)tetrahydro-2H-pyran-2-yl)methyl)carbamoyl)cyclohexane-1-carboxylic acid]
Kd (Table 1A, read-out: ASGPR KD): < 10 µM

CN1C[C@H](Nc2cncc(C(F)(F)F)n2)[C@@H](O)[C@@H](O)C1 [A363]
Kd (Table 1D, read-out: ASGPR KD): < 10 µM

O=C(O)c1cnc(OC[C@H]2OC[C@H](Nc3cccc(C(F)(F)F)n3)[C@@H](O)[C@H]2O)cn1 [A309]
Kd (Table 1C, read-out: ASGPR KD): < 10 µM

O=C(O)c1ccc(CN2CCN(C[C@H]3OC[C@H](Nc4cncc(C(F)(F)F)n4)[C@@H](O)[C@H]3O)CC2)nn1 [A205, 6-((4-(((2R,3R,4R,5S)-3,4-dihydroxy-5-((6-(trifluoromethyl)pyrazin-2-yl)amino)tetrahydro-2H-pyran-2-yl)methyl)piperazin-1-yl)methyl)pyridazine-3-carboxylic acid]
Kd (Table 1C, read-out: ASGPR KD): < 10 µM

CC#Cc1cccc(N[C@H]2CO[C@H](CO)[C@H](O)[C@@H]2O)n1 [A189, (2R,3R,4R,5S)-2-(hydroxymethyl)-5-((6-(prop-1-yn-1-yl)pyridin-2-yl)amino)tetrahydro-2H-pyran-3,4-diol]
Kd (Table 1C, numeric bound, read-out: ASGPR KD): > 30 µM

OC[C@H]1OC[C@H](Nc2cncc(Cl)n2)[C@@H](O)[C@H]1O [A147, (2R,3R,4R,5S)-5-((6-chloropyrazin-2-yl)amino)-2-(hydroxymethyl) tetrahydro-2H-pyran-3,4-diol]
Kd (Table 1B, read-out: ASGPR Kd): < 10 µM

O=C(NC[C@H]1OC[C@H](Nc2cncc(C(F)(F)F)n2)[C@@H](O)[C@H]1O)c1cc(F)ccn1 [A39, N-(((2R,3R,4R,5S)-3,4-dihydroxy-5-((6-(trifluoromethyl)pyrazin-2-yl)amino)tetrahydro-2H-pyran-2-yl)methyl)-4-fluoropicolinamide]
Kd (Table 1A, read-out: ASGPR KD): < 10 µM

C[C@H]1O[C@H](COc2cccc(C(F)(F)F)n2)[C@H](O)[C@@H](O)[C@H]1O [A445]
Kd (Table 1E, read-out: ASGPR KD): 10 to 100 µM

O[C@@H]1[C@H](O)[C@@H](Nc2cncc(C(F)(F)F)n2)CO[C@@H]1CNc1ncncn1 [A85, (2R,3R,4R,5S)-2-(((1,3,5-triazin-2-yl)amino)methyl)-5-((6-(trifluoromethyl)pyrazin-2-yl)amino)tetrahydro-2H-pyran-3,4-diol]
Kd (Table 1A, read-out: ASGPR KD): < 10 µM
